Values of other authors as cited in paper PMC9851200, “Multiparameter phenotypic screening for endogenous TFEB and TFE3 translocation identifies novel chemical series modulating lysosome function” (Autophagy, 2022).

Assays:
Design in all cases: method as in original PKIS2 published data
[1] = biological target: T1, kinases (KINOMEscan panel) (Homo sapiens, UniProt O14757); settings: CHEK1; Published KINOMEscan; ref original PKIS2 published data; cited from earlier work
T1 sequence (O14757 1-476): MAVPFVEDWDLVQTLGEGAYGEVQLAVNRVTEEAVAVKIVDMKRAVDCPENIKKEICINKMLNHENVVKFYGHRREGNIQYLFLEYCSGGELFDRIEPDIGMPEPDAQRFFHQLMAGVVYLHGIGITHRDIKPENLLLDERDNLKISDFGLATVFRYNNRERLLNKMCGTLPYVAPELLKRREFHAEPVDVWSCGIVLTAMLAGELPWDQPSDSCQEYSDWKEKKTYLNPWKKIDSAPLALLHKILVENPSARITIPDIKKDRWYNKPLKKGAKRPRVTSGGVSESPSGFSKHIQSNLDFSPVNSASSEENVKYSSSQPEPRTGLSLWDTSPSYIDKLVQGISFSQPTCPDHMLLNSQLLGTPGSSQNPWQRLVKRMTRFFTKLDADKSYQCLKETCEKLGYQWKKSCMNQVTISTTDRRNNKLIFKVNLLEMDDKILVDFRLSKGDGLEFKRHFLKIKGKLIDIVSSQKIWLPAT

[2] = biological target: kinases (KINOMEscan panel) (Homo sapiens, UniProt P27037); settings: ACVR2A; Published KINOMEscan; ref original PKIS2 published data; cited from earlier work
[3] = biological target: T2, kinases (KINOMEscan panel) (Homo sapiens, UniProt P29320); settings: kinase EPHA3; Published KINOMEscan; ref original PKIS2 published data; cited from earlier work
T2 sequence (P29320 21-983): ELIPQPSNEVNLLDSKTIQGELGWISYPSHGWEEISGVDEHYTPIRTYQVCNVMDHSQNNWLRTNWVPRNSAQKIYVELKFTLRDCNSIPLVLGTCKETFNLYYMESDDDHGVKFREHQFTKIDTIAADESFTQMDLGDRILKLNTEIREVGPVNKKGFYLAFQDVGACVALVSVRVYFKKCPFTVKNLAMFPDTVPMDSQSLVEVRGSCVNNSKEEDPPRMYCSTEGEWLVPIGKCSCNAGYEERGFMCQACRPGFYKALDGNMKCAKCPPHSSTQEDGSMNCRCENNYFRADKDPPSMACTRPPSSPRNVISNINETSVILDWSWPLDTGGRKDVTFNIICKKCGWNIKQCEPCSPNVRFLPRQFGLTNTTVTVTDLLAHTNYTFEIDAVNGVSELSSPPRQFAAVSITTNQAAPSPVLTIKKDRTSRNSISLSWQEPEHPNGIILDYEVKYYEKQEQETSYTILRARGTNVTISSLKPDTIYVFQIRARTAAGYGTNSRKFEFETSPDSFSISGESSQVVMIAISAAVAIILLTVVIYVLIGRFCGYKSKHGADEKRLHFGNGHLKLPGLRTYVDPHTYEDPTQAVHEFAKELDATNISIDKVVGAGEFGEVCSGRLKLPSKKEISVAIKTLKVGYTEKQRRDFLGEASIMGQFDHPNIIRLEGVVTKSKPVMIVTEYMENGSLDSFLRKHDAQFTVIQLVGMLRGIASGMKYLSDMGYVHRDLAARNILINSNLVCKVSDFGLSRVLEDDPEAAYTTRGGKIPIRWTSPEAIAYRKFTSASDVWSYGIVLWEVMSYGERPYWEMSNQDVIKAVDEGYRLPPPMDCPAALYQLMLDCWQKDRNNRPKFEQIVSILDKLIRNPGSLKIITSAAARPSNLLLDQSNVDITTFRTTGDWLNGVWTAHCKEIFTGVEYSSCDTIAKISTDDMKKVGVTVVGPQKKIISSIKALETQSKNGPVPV

[4] = biological target: T3, kinases (KINOMEscan panel) (Homo sapiens, UniProt Q6XUX3); settings: DSTYK; Published KINOMEscan; ref original PKIS2 published data; cited from earlier work
T3 sequence (Q6XUX3 1-929): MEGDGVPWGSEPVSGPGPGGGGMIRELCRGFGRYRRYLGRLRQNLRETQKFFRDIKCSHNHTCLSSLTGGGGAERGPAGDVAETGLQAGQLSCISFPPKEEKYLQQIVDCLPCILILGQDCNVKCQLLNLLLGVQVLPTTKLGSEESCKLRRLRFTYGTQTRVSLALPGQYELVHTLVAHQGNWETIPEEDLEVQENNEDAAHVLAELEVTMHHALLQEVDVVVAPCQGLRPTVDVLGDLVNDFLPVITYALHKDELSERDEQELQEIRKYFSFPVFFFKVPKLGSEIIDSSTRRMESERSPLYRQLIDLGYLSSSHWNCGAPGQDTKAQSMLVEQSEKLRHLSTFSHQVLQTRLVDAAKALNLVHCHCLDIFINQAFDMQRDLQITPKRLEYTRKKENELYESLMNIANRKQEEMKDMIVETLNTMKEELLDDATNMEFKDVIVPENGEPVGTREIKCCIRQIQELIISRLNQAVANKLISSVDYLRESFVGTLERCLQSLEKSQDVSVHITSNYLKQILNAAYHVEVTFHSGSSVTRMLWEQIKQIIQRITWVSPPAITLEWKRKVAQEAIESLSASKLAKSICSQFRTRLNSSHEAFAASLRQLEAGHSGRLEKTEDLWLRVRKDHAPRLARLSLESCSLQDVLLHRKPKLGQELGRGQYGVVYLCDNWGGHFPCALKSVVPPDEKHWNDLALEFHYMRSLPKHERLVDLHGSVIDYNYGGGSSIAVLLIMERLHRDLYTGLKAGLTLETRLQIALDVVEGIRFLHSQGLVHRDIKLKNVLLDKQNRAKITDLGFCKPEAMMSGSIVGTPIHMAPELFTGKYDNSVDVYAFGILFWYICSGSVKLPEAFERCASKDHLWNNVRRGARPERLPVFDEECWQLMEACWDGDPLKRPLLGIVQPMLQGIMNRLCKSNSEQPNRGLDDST

[5] = biological target: kinases (KINOMEscan panel) (Homo sapiens, UniProt Q99755); settings: Published KINOMEscan; ref original PKIS2 published data; cited from earlier work
[6] = biological target: kinases (KINOMEscan panel) (Homo sapiens, UniProt Q9H4A3); settings: Published KINOMEscan; ref original PKIS2 published data; cited from earlier work
[7] = biological target: kinases (KINOMEscan panel) (Homo sapiens, UniProt Q9HAZ1); settings: kinase CLK4; Published KINOMEscan; ref original PKIS2 published data; cited from earlier work
Chain of kinases (KINOMEscan panel) (Homo sapiens, UniProt Q9HAZ1) (Q9HAZ1 whole entry): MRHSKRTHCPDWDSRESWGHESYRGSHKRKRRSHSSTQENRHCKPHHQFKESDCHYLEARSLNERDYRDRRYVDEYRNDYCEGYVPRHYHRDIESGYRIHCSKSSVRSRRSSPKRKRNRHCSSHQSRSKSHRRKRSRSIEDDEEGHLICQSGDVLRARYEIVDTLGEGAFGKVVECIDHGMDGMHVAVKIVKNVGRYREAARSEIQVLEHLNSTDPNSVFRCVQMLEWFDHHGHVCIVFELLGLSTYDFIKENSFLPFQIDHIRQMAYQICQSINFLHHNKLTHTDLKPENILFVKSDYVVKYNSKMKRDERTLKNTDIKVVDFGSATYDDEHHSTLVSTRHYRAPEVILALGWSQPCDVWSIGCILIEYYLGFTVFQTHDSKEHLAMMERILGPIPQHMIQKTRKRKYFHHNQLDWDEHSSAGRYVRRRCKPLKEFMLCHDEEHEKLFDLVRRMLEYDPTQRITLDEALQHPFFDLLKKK

Chain of kinases (KINOMEscan panel) (Homo sapiens, UniProt Q9H4A3) (Q9H4A3 whole entry): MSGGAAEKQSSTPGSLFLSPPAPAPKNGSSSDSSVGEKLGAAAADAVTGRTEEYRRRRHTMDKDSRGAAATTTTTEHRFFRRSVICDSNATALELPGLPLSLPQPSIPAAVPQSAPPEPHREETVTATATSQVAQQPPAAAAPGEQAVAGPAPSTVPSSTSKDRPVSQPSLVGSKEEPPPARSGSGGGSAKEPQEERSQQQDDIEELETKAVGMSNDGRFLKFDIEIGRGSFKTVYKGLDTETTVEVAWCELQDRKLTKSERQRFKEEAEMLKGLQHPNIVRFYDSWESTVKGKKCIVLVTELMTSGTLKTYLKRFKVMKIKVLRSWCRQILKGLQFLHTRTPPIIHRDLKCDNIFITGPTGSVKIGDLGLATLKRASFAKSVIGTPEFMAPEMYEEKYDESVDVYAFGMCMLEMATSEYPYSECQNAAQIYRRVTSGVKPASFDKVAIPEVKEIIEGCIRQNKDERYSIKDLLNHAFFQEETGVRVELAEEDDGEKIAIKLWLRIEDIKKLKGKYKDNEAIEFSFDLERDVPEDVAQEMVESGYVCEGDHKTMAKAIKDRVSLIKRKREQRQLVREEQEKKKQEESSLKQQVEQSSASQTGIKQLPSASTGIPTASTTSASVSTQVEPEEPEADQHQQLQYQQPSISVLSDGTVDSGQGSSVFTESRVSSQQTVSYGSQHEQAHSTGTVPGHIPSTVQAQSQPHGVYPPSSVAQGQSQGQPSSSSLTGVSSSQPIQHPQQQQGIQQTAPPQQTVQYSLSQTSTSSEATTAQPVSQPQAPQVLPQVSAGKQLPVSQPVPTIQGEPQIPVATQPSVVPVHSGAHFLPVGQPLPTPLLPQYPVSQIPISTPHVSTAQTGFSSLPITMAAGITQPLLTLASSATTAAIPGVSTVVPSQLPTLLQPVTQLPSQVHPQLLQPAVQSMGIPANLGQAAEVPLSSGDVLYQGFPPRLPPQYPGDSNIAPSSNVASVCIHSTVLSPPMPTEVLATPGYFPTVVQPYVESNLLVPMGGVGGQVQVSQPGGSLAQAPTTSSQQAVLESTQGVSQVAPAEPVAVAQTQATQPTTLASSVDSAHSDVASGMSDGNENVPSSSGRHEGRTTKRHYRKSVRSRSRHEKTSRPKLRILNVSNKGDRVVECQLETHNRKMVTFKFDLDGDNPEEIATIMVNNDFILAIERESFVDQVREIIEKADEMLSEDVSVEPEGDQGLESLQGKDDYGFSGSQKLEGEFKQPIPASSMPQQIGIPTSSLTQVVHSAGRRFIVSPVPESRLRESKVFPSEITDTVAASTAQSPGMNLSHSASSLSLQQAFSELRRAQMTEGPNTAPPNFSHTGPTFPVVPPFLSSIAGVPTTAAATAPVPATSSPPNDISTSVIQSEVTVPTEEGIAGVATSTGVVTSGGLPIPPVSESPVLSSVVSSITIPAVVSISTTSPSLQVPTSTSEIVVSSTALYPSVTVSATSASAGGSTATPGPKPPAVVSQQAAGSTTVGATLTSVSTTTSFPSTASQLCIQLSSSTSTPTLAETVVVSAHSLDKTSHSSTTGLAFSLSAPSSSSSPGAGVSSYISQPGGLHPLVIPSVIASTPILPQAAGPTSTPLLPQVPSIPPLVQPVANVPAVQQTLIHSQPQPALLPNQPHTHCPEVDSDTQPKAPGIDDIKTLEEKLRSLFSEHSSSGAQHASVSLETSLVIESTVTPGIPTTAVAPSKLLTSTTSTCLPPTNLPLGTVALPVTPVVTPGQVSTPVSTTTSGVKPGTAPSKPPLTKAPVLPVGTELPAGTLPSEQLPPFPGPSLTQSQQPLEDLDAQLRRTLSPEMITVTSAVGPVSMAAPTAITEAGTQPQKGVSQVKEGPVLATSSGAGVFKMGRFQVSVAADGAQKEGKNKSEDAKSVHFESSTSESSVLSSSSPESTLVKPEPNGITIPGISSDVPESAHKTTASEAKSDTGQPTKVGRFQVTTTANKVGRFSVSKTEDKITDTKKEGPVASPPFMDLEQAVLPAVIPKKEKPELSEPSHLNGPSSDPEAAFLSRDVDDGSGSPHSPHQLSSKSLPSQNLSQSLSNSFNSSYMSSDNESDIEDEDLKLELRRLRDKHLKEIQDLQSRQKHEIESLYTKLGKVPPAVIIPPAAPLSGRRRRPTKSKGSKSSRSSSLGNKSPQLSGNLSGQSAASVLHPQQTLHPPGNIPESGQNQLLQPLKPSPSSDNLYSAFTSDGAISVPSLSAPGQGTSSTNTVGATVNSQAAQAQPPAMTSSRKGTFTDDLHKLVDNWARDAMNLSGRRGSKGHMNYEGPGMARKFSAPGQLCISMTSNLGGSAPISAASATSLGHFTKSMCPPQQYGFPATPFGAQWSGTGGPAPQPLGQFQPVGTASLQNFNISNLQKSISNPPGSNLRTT
Chain of kinases (KINOMEscan panel) (Homo sapiens, UniProt Q99755) (Q99755 whole entry): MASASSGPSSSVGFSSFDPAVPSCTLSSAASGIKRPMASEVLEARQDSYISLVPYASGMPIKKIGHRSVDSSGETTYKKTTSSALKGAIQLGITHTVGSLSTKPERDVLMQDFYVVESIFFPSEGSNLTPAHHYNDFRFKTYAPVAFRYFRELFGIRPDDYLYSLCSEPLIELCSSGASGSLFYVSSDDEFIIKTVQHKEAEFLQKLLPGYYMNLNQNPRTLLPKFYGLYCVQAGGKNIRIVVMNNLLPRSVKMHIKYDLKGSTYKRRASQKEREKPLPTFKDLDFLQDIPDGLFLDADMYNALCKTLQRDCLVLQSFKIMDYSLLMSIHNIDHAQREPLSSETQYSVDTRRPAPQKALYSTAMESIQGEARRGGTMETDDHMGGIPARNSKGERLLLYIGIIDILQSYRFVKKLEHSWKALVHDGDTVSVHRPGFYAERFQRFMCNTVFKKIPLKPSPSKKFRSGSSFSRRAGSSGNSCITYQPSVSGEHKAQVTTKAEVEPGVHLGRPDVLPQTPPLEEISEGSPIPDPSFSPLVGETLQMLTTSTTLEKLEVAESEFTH
Chain of kinases (KINOMEscan panel) (Homo sapiens, UniProt P27037) (P27037 20-513): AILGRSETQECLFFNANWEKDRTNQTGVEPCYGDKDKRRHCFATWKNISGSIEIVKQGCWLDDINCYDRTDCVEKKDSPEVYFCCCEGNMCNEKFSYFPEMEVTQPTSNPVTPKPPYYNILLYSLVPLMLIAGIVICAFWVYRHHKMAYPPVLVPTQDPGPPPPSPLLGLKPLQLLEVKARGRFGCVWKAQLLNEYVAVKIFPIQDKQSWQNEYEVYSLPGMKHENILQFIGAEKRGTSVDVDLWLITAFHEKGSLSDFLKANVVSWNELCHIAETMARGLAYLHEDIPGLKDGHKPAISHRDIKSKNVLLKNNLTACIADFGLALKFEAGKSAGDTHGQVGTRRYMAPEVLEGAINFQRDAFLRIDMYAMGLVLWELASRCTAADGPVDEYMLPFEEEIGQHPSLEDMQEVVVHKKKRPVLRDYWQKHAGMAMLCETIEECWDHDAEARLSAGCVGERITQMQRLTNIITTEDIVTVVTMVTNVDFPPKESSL

What does the source list for `Cc1cccc(-c2nc(Nc3ccncc3)c3ccccc3n2)n1` [NK215]?
KINOMEscan CHEK1 [1]: 0; KINOMEscan ACVR2A [2]: 24; KINOMEscan EPHA3 [3]: 0; KINOMEscan DSTYK [4]: 0; KINOMEscan PIP5K1A [5]: 10; KINOMEscan WNK1 [6]: 0; KINOMEscan CLK4 [7]: 0
